Reference: EPA's aquatic toxicity sets

Tested on: Tetrahymena pyriformis
Test: 48 h IGC50 (-log10 mol/L); higher = more toxic

SMILES | 48 h IGC50 (-log10 mol/L)
CCC(=O)c1ccc(O)cc1 | 3.12
Cc1cccc(C)c1N=C=S | 4.5
Cc1c(N)ccc(O)c1C | 4.44
CC(C)(C)c1cccc(O)c1 | 3.74
CCc1cccc2ccccc12 | 3.89
O=c1ccc(Cl)c[nH]1 | 2.25
O=C(O)CCCCCC(=O)O | 2.42
Cc1cc(N)c([N+](=O)[O-])cc1C | 3.45
CCc1ccco1 | 2.48
CCCCS(=O)(=O)CCCC | 2.74
CCOC(=O)C=C(C)C | 2.52
CCOC(=O)C(C#N)c1ccccc1 (stereo not given) | 2.98
OCCOc1cccc(O)c1 | 2.13
CCN(C)c1ccccc1 | 3.29
CCCCOC(=O)c1ccc(O)cc1 | 4.33
O=C1CCCO1 | 1.28

SMILES | 48 h IGC50 (-log10 mol/L)
O=C(c1ccccc1)c1ccc(O)cc1O | 4.37
CCCCCC(N)=O | 2.09
Fc1ccc(-c2ccccc2)cc1 | 3.53
Cc1ccc(Cl)c(C=O)c1F | 3.74
Cc1ccc(C=O)c2ccccc12 | 4.12
C#CC=CCO | 2.44
O=C(O)c1cc(Cl)ccc1Cl | 2.54
CCC(C)CN (stereo not given) | 2.52
CCCCCCOc1ccc(O)cc1 | 4.64
CCCCCCCCCCCN | 5.33
N#CCc1ccc(Br)cc1 | 3.6
C=CC(=O)OCCCCC | 3.54
Cc1ccc([N+](=O)[O-])cc1F | 3.33
CCCCCCC(C)=O | 2.85
C=COC(=O)C(=C)C | 2.38

Tested on: Pimephales promelas
Test: 96 h LC50 (-log10 mol/L); higher = more toxic

SMILES | 96 h LC50 (-log10 mol/L)
CCOP(=S)(Oc1ccc([N+](=O)[O-])cc1)c1ccccc1 (stereo not given) | 6.21
CCOP(=S)(OCC)SC1OCCOC1SP(=S)(OCC)OCC (stereo not given) | 4.66
COc1ccc(C(c2ccc(OC)cc2)C(Cl)(Cl)Cl)cc1 | 7.61
CC(C)(O)C(F)(F)C(F)F | 2.44
ClCCCCCl | 3.39
CCCCCCC(C)N (stereo not given) | 4.4
Cc1cc2cccc(C)c2cc1C | 4.42
Cc1ccc(S(=O)(=O)n2ccnc2)cc1 | 3.73
O=[N+]([O-])c1ccc(/C=C/c2cccc(CO)n2)o1 | 5.48
CCOC(=O)CC(S)C(=O)OCC (stereo not given) | 3.77
C1N2CN3CN1CN(C2)C3 | 0.449
Oc1c(Cl)cc(Cl)c(Cl)c1Cc1c(O)c(Cl)cc(Cl)c1Cl | 7.29
COc1cc(Cl)c(Cl)cc1O | 4.63
Clc1cccc(C(Cl)(Cl)Cl)n1 | 4.37
COCOC | 1.04
N#Cc1ccccc1C(F)(F)F | 3.61
CCOC(=O)C(C)Oc1ccc(Oc2nc3ccc(Cl)cc3o2)cc1 (stereo not given) | 4.71
CC(C)Nc1nc(Cl)nc(NC2CC2)n1 | 4.8
CCCCCCCCS(=O)C(C)Cc1ccc2c(c1)OCO2 (stereo not given) | 5.64
CC(C)(C)SC(C)(C)C | 3.7
Cc1c(Cl)cccc1NC=O | 3.56
CC(C)=CCC/C(C)=C/CO | 4.59
COP(=O)(O)OC | 3.85
O=C(O)C(Br)Br | 3.5
CCc1cccc(C)c1N(C(=O)CCl)C(C)COC (stereo not given) | 4.54

SMILES | 96 h LC50 (-log10 mol/L)
ClCc1ccccc1 | 4.4
CCOC(=O)C(F)(F)F | 1.15
CCN(CC)N=O | 2.12
C#CCC(C)O (stereo not given) | 3.38
CC=CC=CC | 3.61
CCCCCCCCCCc1ccc(N)cc1 | 6.57
CCOC(=O)c1ccccc1O | 3.92
CCCCCCCC/C=C\CCCCCCCC(=O)O | 3.14
CC(=O)/C=C/C1=C(C)CCCC1(C)C | 4.58
O=c1cccc(Cl)[nH]1 | 2.78
COC(=O)c1ccc(C(=O)OC)c(N)c1 | 4.37
CCOP(=S)(OCC)Oc1nc(Cl)c(Cl)cc1Cl | 6.36
N#Cc1cccc(C(F)(F)F)c1 | 3.56
O=Cc1ccco1 | 3.57
CCCCN | 2.44
CNC(=O)Oc1ccc(N(C)C)c(C)c1 | 5.03
CC(N)CN (stereo not given) | 1.82
C1OCOCO1 | 1.18
Nc1ccc(O)c([N+](=O)[O-])c1 | 3.63
CCOC(N)=O | 1.23
C#CC(C)(O)CCC(C)C (stereo not given) | 3.46
CCOP(=S)(OCC)SCCSCC | 4.85
CC(C)(c1cc(Cl)c(O)c(Cl)c1)c1cc(Cl)c(O)c(Cl)c1 | 5.44
CCC(C)c1cccc(OC(=O)N(C)Sc2ccccc2)c1 (stereo not given) | 6.91
